Among the test systems are EKVX; MDA-MB-435; SF-268; U-251; OVCAR-3; SNB-75; NCI-H460; M14; OVCAR-5; ACHN; K562; SNB-19; NCI-H522; NCI-H226; HT-29; UACC-62; NCI/ADR-RES; 786-0; A549.
Holding throughout (experiment): growth of human tumour cells (NCI), 48 h

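Tested at 5 concentrations; 48 h exposure; 96-well plates; endpoints linearly interpolated, else capped at highest concentration. Abbreviation: GI50, concentration required for 50% inhibition of growth.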 The source made the active and inactive calls. Cut-off read from the data, not from the text of the source: active = GI50 up to about 1.1 µM and inactive = higher. Bounds are passed on as bounds.

`COC(=O)C1=C(OC(=O)/C(=C/c2ccc(Cl)cc2)c2ccc(Cl)cc2)C(C(=O)OC)[C@@]2(O)[C@@H](C(=O)OC)[C@H](C)C[C@@H]1[C@@H]2C(=O)OC` (stereo partly drawn): the GI50 with EKVX is 10.6 µM (inactive); with MDA-MB-435 it was > 100 µM (inactive); in the experiment on SF-268 it was 35 µM (inactive); in the experiment on U-251, 17.8 µM (inactive); in the experiment with OVCAR-3, > 45.8 µM (inactive); with SNB-75, > 56 µM (inactive). In addition, the GI50 was 14.3 µM (inactive) in the experiment on NCI-H460; > 100 µM (inactive) in the experiment on M14; > 21 µM (inactive) in the experiment with OVCAR-5; 25.9 µM (inactive) in the experiment on ACHN; 2.33 µM (inactive) with K562; 16.4 µM (inactive) in the experiment with SNB-19. Also, the GI50 in the experiment with NCI-H522 is 3.87 µM (inactive); in the experiment with NCI-H226 it was > 100 µM (inactive); in the experiment with HT-29 it was > 61 µM (inactive); in the experiment with UACC-62, > 100 µM (inactive); with NCI/ADR-RES, 17.2 µM (inactive); in the experiment with 786-0 it was > 100 µM (inactive). In addition, the GI50 in the experiment with A549 was 11.5 µM (inactive).
For `CCCCNc1nc2ccccc2c2c1ncn2CC(C)C`, the GI50 in the experiment on EKVX, in the experiment on MDA-MB-435, in the experiment on SF-268, in the experiment on U-251, in the experiment with OVCAR-3 and in the experiment with SNB-75 was > 100 µM (inactive) throughout. In addition, the GI50 with NCI-H460, in the experiment on M14, in the experiment with OVCAR-5, in the experiment with ACHN, with K562 and in the experiment on SNB-19 was > 100 µM (inactive) each time. Further, the GI50 with NCI-H522, in the experiment with NCI-H226, in the experiment with HT-29, with UACC-62, with NCI/ADR-RES and in the experiment on 786-0 was > 100 µM (inactive) throughout. Also, the GI50 in the experiment on A549 was > 100 µM (inactive).
Turning to `C[C@]1(O)CC(=O)c2c(c(-c3ccc4cc5c(c(O)c4c3O)C(=O)C[C@@](C)(O)C5)c3cccc(O)c3c2O)C1`, the GI50 is 11.2 µM (inactive) in the experiment on EKVX; 7.05 µM (inactive) in the experiment on MDA-MB-435; 4.31 µM (inactive) in the experiment on SF-268; 4.02 µM (inactive) in the experiment on U-251; 3.71 µM (inactive) with OVCAR-3; 7.59 µM (inactive) with SNB-75. The GI50 in the experiment on NCI-H460 was 3.24 µM (inactive); in the experiment with M14 it was 5.56 µM (inactive); in the experiment on OVCAR-5, 9.46 µM (inactive); in the experiment on ACHN, 4.04 µM (inactive); in the experiment with K562 it was 11.9 µM (inactive); in the experiment with SNB-19, 6.52 µM (inactive). The GI50 was 4.88 µM (inactive) in the experiment with NCI-H522; 3.85 µM (inactive) in the experiment on NCI-H226; 5.71 µM (inactive) with HT-29; 5.64 µM (inactive) with UACC-62; 5.15 µM (inactive) with NCI/ADR-RES; 5.37 µM (inactive) in the experiment on 786-0. The GI50 in the experiment with A549 was 4.24 µM (inactive).
Consider `Clc1ccc(OCC2NC3C=CC32)cn1` (stereo not drawn), for which the GI50 in the experiment on EKVX is 24.9 µM (inactive); in the experiment on MDA-MB-435, > 100 µM (inactive); in the experiment with SF-268, > 100 µM (inactive); in the experiment on U-251 it was > 100 µM (inactive); in the experiment with OVCAR-3, > 100 µM (inactive); in the experiment on SNB-75, > 100 µM (inactive). Further, the GI50 in the experiment with NCI-H460 was > 100 µM (inactive); in the experiment with M14, > 100 µM (inactive); with OVCAR-5 it was > 100 µM (inactive); in the experiment with ACHN it was > 100 µM (inactive); in the experiment with K562, 59.3 µM (inactive); with SNB-19, > 100 µM (inactive). In addition, the GI50 was > 100 µM (inactive) with NCI-H522; > 100 µM (inactive) with NCI-H226; 50.1 µM (inactive) in the experiment with HT-29; > 100 µM (inactive) in the experiment on UACC-62; > 100 µM (inactive) with NCI/ADR-RES; > 100 µM (inactive) in the experiment with 786-0. The GI50 in the experiment on A549 was > 100 µM (inactive).
In the case of `Cc1ccc(-n2nnc(C(N)=O)c2O)cc1`, the GI50 in the experiment with EKVX, with MDA-MB-435, with SF-268, in the experiment with U-251, in the experiment with OVCAR-3 and in the experiment on SNB-75 was > 100 µM (inactive) each time. For the same molecule, the GI50 in the experiment on NCI-H460, with M14, with OVCAR-5, in the experiment on ACHN, in the experiment with K562 and with SNB-19 was > 100 µM (inactive) each time. In addition, the GI50 with NCI-H522, in the experiment with NCI-H226, in the experiment on HT-29, in the experiment with UACC-62, with NCI/ADR-RES and in the experiment with 786-0 was > 100 µM (inactive) each time. Also, the GI50 with A549 was > 100 µM (inactive).
In the case of `CC(=O)O[C@H]1C[C@H](O[C@H]2[C@@H](O)C[C@H](O[C@H]3[C@@H](O)C[C@H](O[C@H]4CC[C@@]5(C)[C@H](CC[C@@H]6[C@@H]5CC[C@]5(O)[C@@H](C7=CC(=O)OC7)CC[C@]65O)C4)O[C@@H]3C)O[C@@H]2C)O[C@H](C)[C@H]1O[C@@H]1O[C@H](CO)[C@@H](O)[C@H](O)[C@H]1O`, the GI50 in the experiment on EKVX is 0.233 µM (active); with MDA-MB-435, 0.624 µM (active); in the experiment with SF-268, 0.358 µM (active); in the experiment on U-251 it was 0.427 µM (active); with OVCAR-3 it was 0.349 µM (active); with SNB-75, 0.908 µM (active). Besides, the GI50 in the experiment with NCI-H460 was 0.106 µM (active); in the experiment on M14, 0.841 µM (active); with OVCAR-5, 0.455 µM (active); in the experiment on ACHN it was 0.075 µM (active); in the experiment on K562, 0.337 µM (active); in the experiment on SNB-19 it was 0.771 µM (active). Further, the GI50 is 0.0492 µM (active) with NCI-H522; 1.29 µM (inactive) in the experiment on NCI-H226; 0.286 µM (active) in the experiment with HT-29; 0.769 µM (active) in the experiment with UACC-62; 0.237 µM (active) in the experiment with NCI/ADR-RES; 0.258 µM (active) in the experiment on 786-0. In addition, in the experiment with A549, the GI50 was 0.0581 µM (active).
Turning to `O=C1C=CC(=O)N1c1ccc(I)cc1`, the GI50 is 23.3 µM (inactive) with EKVX; 16.4 µM (inactive) in the experiment with MDA-MB-435; 27 µM (inactive) with SF-268; 23.6 µM (inactive) in the experiment on U-251; 20.8 µM (inactive) with OVCAR-3; 21.8 µM (inactive) in the experiment on SNB-75. Further, the GI50 with NCI-H460 is 33.5 µM (inactive); with M14, 16.7 µM (inactive); in the experiment on OVCAR-5, 23.6 µM (inactive); in the experiment with ACHN, 17.3 µM (inactive); with K562, 6.01 µM (inactive); with SNB-19, > 44.8 µM (inactive). For the same molecule, the GI50 was 18.6 µM (inactive) in the experiment with NCI-H522; 22.9 µM (inactive) in the experiment with NCI-H226; 18.9 µM (inactive) in the experiment with HT-29; 17.5 µM (inactive) with UACC-62; 29.9 µM (inactive) in the experiment with NCI/ADR-RES; 7.53 µM (inactive) with 786-0. In addition, the GI50 in the experiment with A549 was 22.9 µM (inactive).

For the origin of these results see ChEMBL document CHEMBL1201862, “PubChem BioAssay data set” (2004).
